Literature values as cited in patent US20020028759A1, “Detergent compositions” (Unilever Home & Personal Care USA, Division of Conopco, Inc., priority 1999, published 2002).
Where two headings read alike, the source gives them in different places.

Conditions: 20° C.
[1] = other common materials, by contrast

Row | Compound | Water Solubility (g/100 g) [1] [g/100 g] | Water Solubility (g/100 g) (highly water-soluble materials)
1 | O=BO[O-].[Na+] [Sodium perborate anhydrous] | 3.7 | –
2 | O=P(O)(O)OP(=O)(O)OP(=O)(O)O [Sodium tripolyphosphate anhydrous] | 15 | –
3 | NC(N)=O [Urea] | – | >100
